Values of other authors in the PKSmart pharmacokinetics tables (Seal et al. 2025).
Where a SMILES comes first, the peptide text is derived from it. Bridges are numbered along the chain shown (N, C = ends). [ ]: non-standard residue; d: D form. hArg = N=C(N)NCCCC[CH](N)C(=O)O; Mpa = O=C(O)CCS

Experiment: Lombardo, Berellini, Obach 2018, Drug Metab Dispos 46:1466, doi 10.1124/dmd.118.082966
Conditions: human; for MRT / Vd / clearance / half-life: in vivo, iv; for fraction unbound: plasma

Compound | MRT [h] | Vd [L/kg] | clearance [mL/min/kg] | half-life [h] | fraction unbound
CCc1c2c(nc3ccc(OC(=O)CCC(=O)Oc4c(C)c(C)c5c(c4C)CC[C@@](C)(CCC[C@H](C)CCC[C@H](C)CCCC(C)C)O5)cc13)-c1cc3c(c(=O)n1C2)COC(=O)[C@]3(O)CC | 3.34 | 0.15 | 0.81 | 3.77 | –
NCC1CCC(C(=O)O)CC1 (centres undefined) | 2.6 | 0.38 | 2.4 | 2.3 | –
COc1ccc2cc1Oc1cc3c(cc1OC)CC[N+](C)(C)[C@H]3Cc1ccc(cc1)Oc1c(OC)c(OC)cc3c1[C@@H](C2)[N+](C)(C)CC3 | 5.6 | 0.4 | 1.2 | 5.1 | 0.65
CC(C)=CCN1Cc2cc(Cl)cc3[nH]c(=S)n(c23)C[C@@H]1C | 35.2 | 22 | 10.4 | 26 | –
CC(C)(C)[N+](O)=Cc1ccc(S(=O)(=O)O)cc1S(=O)(=O)[O-] | 2.2 | 0.18 | 1.35 | 3.6 | 0.6
CCc1cc2c(cc1CC)CC(NC[C@H](O)c1ccc(O)c3[nH]c(=O)ccc13)C2 | 72.4 | 19.4 | 4.48 | 92.5 | –
CC[C@H]1CN2CC[C@H]1C[C@@H]2[C@@H](O)c1ccnc2ccc(OC)cc12 | 11 | 2.8 | 4.2 | 5.7 | 0.22
CC1(C)[C@@H](O[C@H]2OC(C(=O)O)[C@@H](O)[C@H](O)[C@H]2O[C@@H]2OC(C(=O)O)[C@@H](O)[C@H](O)[C@H]2O)CC[C@]2(C)C3C(=O)C=C4C5C[C@@](C)(C(=O)O)CC[C@]5(C)CC[C@]4(C)[C@@]3(C)CC[C@@H]12 (some centres undefined) | 7.83 | 0.06 | 0.13 | 8.83 | –
CC(C(=O)O)c1cccc(Oc2ccccc2)c1 (centres undefined) | 2.8 | 0.1 | 0.6 | 2.24 | 0.02
O=C(O)CO | 2.75 | 0.67 | 4.05 | 2.1 | 0.84
COC(=O)c1ccc2c(C(=Nc3ccc(N(C)C(=O)CN4CCN(C)CC4)cc3)c3ccccc3)c(O)[nH]c2c1 | 12.6 | 15 | 19.9 | 9.5 | 0.02
CCC(C)C(=O)O[C@H]1C[C@@H](C)C=C2C=C[C@H](C)[C@H](CC[C@@H](O)C[C@@H](O)CC(=O)O)[C@H]21 (some centres undefined) | 1.3 | 0.87 | 7.2 | 1.4 | 0.043
O[C@@H](CNC[C@H](O)[C@H]1CCc2cc(F)ccc2O1)[C@@H]1CCc2cc(F)ccc2O1 | 13 | 11 | 14 | 10 | 0.02
CC(C)COC[C@@H](CN(Cc1ccccc1)c1ccccc1)N1CCCC1 | 19.3 | 10.1 | 8.7 | 14.9 | 0.001
N=C(N)c1ccc(OCCCCCOc2ccc(C(=N)N)cc2)cc1 | 12 | 53 | 74 | 25 | 0.09
Cc1ccccc1-c1cc(N2CCN(C)CC2)ncc1N(C)C(=O)C(C)(C)c1cc(C(F)(F)F)cc(C(F)(F)F)c1 | 32.6 | 5.54 | 2.83 | 34.3 | 0.003
CC(=O)N1CCN([C@H]2CCN(C(=O)N(C)[C@H](C)c3cc(C(F)(F)F)cc(C(F)(F)F)c3)[C@@H](c3ccc(F)cc3C)C2)CC1 | 15 | 2.77 | 3.07 | 15.6 | 1
CC[C@]1(O)C[C@H]2CN(CCc3c([nH]c4ccccc34)[C@@](C(=O)OC)(c3cc4c(cc3OC)N(C)[C@H]3[C@@](O)(C(N)=O)[C@H](O)[C@]5(CC)C=CCN6CC[C@]43[C@@H]65)C2)C1 | 38 | 5 | 2.2 | 35 | –
O=C(O)C1O[C@@H](Oc2cc3oc(-c4ccc(O)cc4)cc(=O)c3c(O)c2O)[C@H](O)[C@@H](O)[C@@H]1O (some centres undefined) | 0.31 | 0.88 | 46.6 | 1.18 | 0.1
O=c1[nH]cnc2[nH]ncc12 | 0.88 | 0.58 | – | – | –
CCCCC(C)(C)[C@@H](O)/C=C\[C@@H]1[C@H](C/C=C/CCCC(=O)O)[C@@H](Cl)C[C@@H]1O | 0.2 | 0.16 | 13.2 | 0.8 | –
CCCc1nc(C(C)(C)O)c(C(=O)O)n1Cc1ccc(-c2ccccc2-c2nnn[nH]2)cc1 | – | – | 0.29 | 10.8 | –
CC[N+](C)(C)c1cccc([O-])c1 | 1.9 | 1.1 | 9.6 | 1.8 | –
Cc1ncsc1CCCl | 3.3 | 6.6 | 33 | 4.5 | 0.36

Compound | MRT [h] | Vd [L/kg] | clearance [mL/min/kg] | half-life [h] | fraction unbound
C[N+]1(C)CCC(OC(=O)C(O)(c2ccccc2)C2CCCC2)C1 (centres undefined) | 0.37 | – | – | – | –
CCCCc1nc(C)c(CC(=S)N(C)C)c(=O)n1Cc1ccc(-c2ccccc2-c2nnn[nH]2)cc1 | 1.1 | 0.6 | 9.6 | 5.5 | –
COC(=O)C(c1ccccc1Cl)N1CCc2sccc2C1 (centres undefined) | 1.42 | 2.01 | 23.6 | 5.06 | 0.02
COc1ccnc(C[S+](O)c2nc3cc(-n4cccc4)ccc3[n-]2)c1C (centres undefined) | 4.32 | 0.19 | 0.73 | 3.59 | –
C[C@@H](O)C1C(=O)N2C(C(=O)O)=C(SCCNC=N)C[C@H]12 (some centres undefined) | 1.3 | – | 3 | 0.95 | –
Cc1[nH]cnc1CN1CCc2c(c3ccccc3n2C)C1=O | 2.1 | 1.1 | 8.7 | 1.6 | –
O=C(O)C[C@@H]1CC[C@H](NC(=O)Cc2cccs2)B(O)O1 | 1.64 | 0.29 | 2.94 | 1.34 | 0.67
C=CCC1=CC(C)C[C@H](C)C[C@H](OC)[C@H]2O[C@@](O)(C(=O)C(=O)N3CCCCC3C(=O)O[C@H](/C(C)=C/[C@@H]3CC[C@@H](O)[C@H](OC)C3)[C@H](C)[C@@H](O)CC1=O)[C@H](C)C[C@@H]2OC (some centres undefined) | 27 | 1.2 | 0.7 | 26 | –
CC1C(=O)O[C@H]2C[C@@]34[C@H]5C[C@@H](C(C)(C)C)C36C(O)C(=O)O[C@H]6OC4(C(=O)O5)[C@@]12O (some centres undefined) | 4.6 | 0.62 | 2.3 | 3.8 | –
C[n+]1ccccc1C=NO | 1.5 | 0.8 | 9 | 1.4 | 1
CO/N=C1\CN(c2nc3c(cc2F)c(=O)c(C(=O)O)cn3C2CC2)CC1CN (centres undefined) | 8.1 | 3.52 | 7.2 | 8.3 | 0.3
NC(=O)C1CC[C@@H]2CN1C(=O)N2OS(=O)(=O)O (some centres undefined) | 1.4 | 0.24 | 2.76 | 1.7 | 0.93
CCCc1c(OCCCS(=O)(=O)c2ccc(C(=O)CCC(=O)O)cc2)ccc(C(C)=O)c1O | – | – | 17.4 | 0.04 | –
COC(=O)CC[C@@H]1N=C(c2ccccn2)c2cc(Br)ccc2-n2c(C)cnc21 | 0.5 | 0.44 | 15 | 0.75 | –
C=C[C@@H]1CNCC[C@@H]1CCCc1ccnc2ccc(OC)cc12 | 15.6 | 24.4 | 26 | 12.1 | –
CN1CCc2nc(C(=O)N[C@@H]3CC(C(=O)N(C)C)CC[C@@H]3NC(=O)C(=O)Nc3ccc(Cl)cn3)sc2C1 (some centres undefined) | – | – | – | – | 0.5
CC(=O)O[C@H]1C[C@@H]2CC[C@@H]3[C@H](CC[C@@]4(C)[C@H]3C[C@H](N3CC[N+](C)(C)CC3)[C@@H]4OC(C)=O)[C@@]2(C)C[C@@H]1N1CC[N+](C)(C)CC1 | 1.9 | 0.35 | 3 | 1.9 | 0.98
CCOC(=O)[C@]1(c2ccccc2)CCC=C[C@H]1NC | 4.2 | 2.5 | 9.9 | 4.4 | –
CN(CC(N)=O)C(=O)N(CCCl)N=O | 1.4 | 0.76 | 9 | 1 | –
CC1=C(C(=O)O)N2C(=O)C(NC(=O)C(N)c3ccc(O)cc3)[C@H]2SC1 (some centres undefined) | 1.5 | 0.23 | 2.5 | 1.1 | –
Nc1nc(Cl)nc2c1ncn2[C@H]1C[C@H](O)[C@@H](CO)O1 | 9.2 | 7.7 | 14 | 16 | 0.79
N=C(N)N/N=C1\CCc2c(C(=N)N)cccc21 | 104 | 20 | 3.2 | 65.4 | –
CCOc1cc(CC(=O)N[C@@H](CC(C)C)c2ccccc2N2CCCCC2)ccc1C(=O)O | 1.88 | 0.315 | 4.92 | 1.69 | –
O=[N+]([O-])O[C@H]1CO[C@H]2[C@@H]1OC[C@H]2O | 2.3 | 0.86 | 6.2 | 1.9 | –

Compound | MRT [h] | Vd [L/kg] | clearance [mL/min/kg] | half-life [h] | fraction unbound
Nc1cc(OCC2CC2)c(C(=O)NC2CN3CCC2CC3)cc1Cl (centres undefined) | 12.3 | 3.9 | 5.2 | 13.5 | –
Cn1c(=O)c2nc[nH]c2n(C)c1=O | – | – | – | 7.2 | –
CC(=O)Nc1ccc(C2=NNC(=O)CC2C)cc1 (centres undefined) | 88 | 2.38 | 0.45 | 70 | 0.4
C[C@@](O)(/C=C/[C@H]1CC=CC(=O)O1)[C@@H](C[C@@H](O)\C=C/C=C\C=C\CO)OP(=O)(O)O | 1.2 | 0.086 | 1.2 | 1.5 | –
CCOC(Cc1ccc(OCCc2ccc(OS(C)(=O)=O)cc2)cc1)C(=O)O (centres undefined) | 56 | 0.13 | 0.039 | 45 | –
NCCCNc1ccc2c(CNCCO)nn3c4c(O)ccc(O)c4c(=O)c1c23 | 11 | 12 | 18 | 32 | –
CSCCC(N)C(=O)NC(CCC(=O)O)C(=O)NC(Cc1cnc[nH]1)C(=O)NC(Cc1ccccc1)C(=O)NC(CCCN=C(N)N)C(=O)NC(Cc1c[nH]c2ccccc12)C(=O)NCC(=O)O (centres undefined) | 0.01 | 0.73 | 871 | 0.06 | –
CN[C@@H]1[C@H](O[C@H]2[C@H](O[C@H]3[C@H](O)[C@@H](O)[C@H](NC(=N)N)[C@@H](O)[C@@H]3NC(=N)N)O[C@@H](C)[C@]2(O)C=O)O[C@@H](CO)[C@H](O)[C@H]1O | 7.3 | 0.34 | 0.78 | 4.3 | 0.65
N=C(N)NCCCCC1NC(=O)CCSSCC(C(N)=O)NC(=O)C2CCCN2C(=O)C(Cc2c[nH]c3ccccc23)NC(=O)C(CC(=O)O)NC(=O)CNC1=O (centres undefined) ([Mpa][hArg]GDWPC-NH2; disulfide 1-7; configuration not given here) | 2.4 | 0.17 | 1.2 | 4.2 | 0.75
CN(C)c1ccc(O)c2c1C[C@H]1C[C@H]3[C@H](N(C)C)C(O)=C(C(N)=O)C(=O)[C@@]3(O)C(O)=C1C2=O | – | – | – | – | 0.005
C[C@@H](Oc1cc(-c2cnn(C3CCNCC3)c2)cnc1N)c1c(Cl)ccc(F)c1Cl | – | – | – | – | 0.09
CC[C@H]1C2C[C@H]3[C@@H]4N(C)c5ccccc5C45C[C@@H](C2[C@H]5O)N3[C@@H]1O (some centres undefined) | 6.8 | 4 | 9.8 | 7.3 | 0.24
CCN(C)C(=O)Oc1cccc([C@H](C)N(C)C)c1 | 1.9 | 1.3 | 12 | 1.4 | 0.6
Oc1cc2c(cc1O)[C@H](Cc1cccc3ccccc13)NCC2 | 0.12 | 1.09 | 156 | 1.58 | –
O=C(/C=C/c1ccccc1)NCCO | 1.93 | 0.11 | 0.99 | 1.35 | –
CCC(C)(C)NCC(O)COc1ccccc1C(=O)CCc1ccccc1 (centres undefined) | 1.9 | 1.2 | 11 | 1.5 | 0.017
C[C@]12CC[C@@H]3c4ccc([O-])cc4C[C@H](CCCCCCCCC[S+](O)CCCC(F)(F)C(F)(F)F)C3[C@@H]1CC[C@@H]2O (some centres undefined) | 5.86 | 4.15 | 11.8 | 16 | 0.01
O=P(O)(O)C(Cl)(Cl)P(=O)(O)O | 9.2 | 0.88 | 1.6 | 43.2 | 0.64
CCOC(=O)C1=C[C@]2(CC)CCCN3CCc4c(n1c1ccccc41)[C@@H]32 | 5.68 | 2.08 | 6.1 | 4.83 | 0.02
N=C(N)N=c1[nH]c(CSCCC(=N)NS(N)(=O)=O)cs1 | 3 | 1.2 | 6.6 | 2.8 | 0.84
CS(=O)(=O)c1cc(F)cc2c3c(n(Cc4ccc(Cl)cc4)c12)[C@@H](CC(=O)O)CC3 | 13.7 | 1 | 1.21 | 11.8 | –
C=CCN1CCC[C@H]1CNC(=O)c1cc(S(=O)(=O)NC)c(N)cc1OC | 7 | 2.3 | 5.47 | 4.8 | –
